Reference: patent US8808749B2, “Polymer conjugate of bioactive substance having hydroxy group” (priority 2009, dated 2014)

Tests used:
[1] = test system: Mouse colon cancer, Colon 26; experiment: Antitumor activity test for combretastatin A4 conjugate; type: in vivo; details: for relative tumor volume based on non-treatment group: 200 mg/kg in terms of combretastatin A4, once into tail vein
Description: Mouse colon cancer, Colon 26, maintained by serial subcutaneous subculture in mice, was minced into about 2-mm cubic fragments, and the fragments were subcutaneously transplanted on the dorsal part of female CDF1 mice with a trocar. Eight days after the tumor transplantation, the polymer conjugate according to the invention (Compound 22) or a control drug (combretastatin A4 phosphate ester; CA4P, PEG-Glu-CA4 or PEG-Asp-CA4) was each administered once into the mouse tail vein in a way such that each mouse received the same dose per body weight in terms of combretastatin A4. Each compound was dissolved in a 5% aqueous glucose solution and used.
After the administration, the major axis (L mm) and the minor axis (W mm) of the tumor were measured using a caliper, and the tumor volume was calculated by the formula (L×W^2)/2.

heart muscle = experiment: Effect of combretastatin A4 conjugate on heart muscle (plasma CPK); type: in vivo, mouse; details: for creatinine phosphokinase (CPK) in plasma, average: 200 mg/kg once into tail vein
Description: Combretastatins are known to have a side effect of causing a myocardial damage. As such, by following a change in efficacy of creatinine phosphokinase (CPK) that is released into blood when enzymes abundantly present in heart muscles or neurons are damaged, the degree of side effect of the compounds according to the invention was compared to those of known compounds.
To a non-treated female CDF1 mouse, Compound 22 as a compound of the invention and CA4P, PEG-Glu-CA4, and PEG-Asp-CA4 as a comparative compound were each administered once into the mouse tail vein. Six hours and 24 hours after the administration, three animals per each group were anesthetized with ether and blood was taken from abdominal aorta. Creatinine phosphokinase (CPK) contained in plasma was measured.

[2] = test system: Mouse colon cancer, Colon 26; experiment: Antitumor activity test for docetaxel conjugate; type: in vivo; details: 100 mg/kg in terms of docetaxel, once into tail vein
Description: Mouse colon cancer, Colon 26, maintained by serial subcutaneous subculture in mice, was minced into about 2-mm cubic fragments, and the fragments were subcutaneously transplanted on the dorsal part of female CDF1 mice with a trocar. Eight days after the tumor transplantation, the polymer conjugate according to the invention (Compound 30) or a control drug (docetaxel; DTX or PEG-Asp-DTX) was each administered once into the mouse tail vein in a way such that each mouse received the same dose per body weight in terms of docetaxel. Docetaxel was dissolved in anhydrous ethanol and cremophor (manufactured by Sigma Corporation), and diluted with physiological saline at the time of use. Other compounds were dissolved in a 5% aqueous glucose solution for injection and used. After the administration, the major axis (L mm) and the minor axis (W mm) of the tumor were measured using a caliper, and the tumor volume was calculated by the formula (L×W^2)/2.

Compound	relative tumor volume based on non-treatment group ([1]; day 0 after administration)	relative tumor volume based on non-treatment group ([1]; day 2 after administration)	relative tumor volume based on non-treatment group ([1]; day 4 after administration)	relative tumor volume based on non-treatment group ([1]; day 6 after administration)	relative tumor volume based on non-treatment group ([1]; day 8 after administration)	antitumor activity (in words) ([1]; dose of 200 mg/kg)	creatinine phosphokinase (CPK) in plasma, average (heart muscle; 6 hours after administration)	creatinine phosphokinase (CPK) in plasma, average (heart muscle; 24 hours after administration)	CPK change (in words) (heart muscle; dose of 200 mg/kg)	relative tumor volume based on non-treatment group ([2]; day 0 after administration)	relative tumor volume based on non-treatment group ([2]; day 3 after administration)	relative tumor volume based on non-treatment group ([2]; day 5 after administration)	relative tumor volume based on non-treatment group ([2]; day 9 after administration)	relative tumor volume based on non-treatment group ([2]; day 12 after administration)
COc1ccc(/C=C\c2cc(OC)c(OC)c(OC)c2)cc1OP(=O)(O)O [CA4P, combretastatin A4 phosphate ester]	1.00	0.72	0.82	0.80	0.80	weak antitumor activity	400-500 IU/L	≦200 IU/L	CPK increase was significant					
docetaxel [DTX]										1.00	0.50	0.32	0.37	0.35
